Literature values, collected in patent US8334001B2, “Composition comprising mucilaginous polysaccharides derived from aloe barbadensis and method for obtaining same and use thereof” (Pharmabrand S.A., priority 2007, dated 2012).
Where two headings read alike, the source gives them in different places.

Substance	effect on TNF-alfa (TNF-alfa)	activation of the necrosis factor, kappa B (necrosis factor, kappa B; concentrations of only 0.015% of the aloeride)	activation of the necrosis factor, kappa B (necrosis factor, kappa B; concentration of 200 μg/ml)
aloeride	increases	the effect is shown	
acemannan			produces an activation
